Like-named read-outs stand apart in the source and are kept apart here.
Experiments:
[1] = system: HepG2; experiment: MTT assay, HepG2 cells; format: cell-based, human; settings: read-out: Half maximal inhibitory concentration (IC50) values, HepG2
Source text: (§1) The human hepatocellular carcinoma cell line (HepG2), human hepatocellular carcinoma cell line (Bel-7402), human cervical cancer cell line (Hela), human breast adenocarcinoma cell line (MCF-7) and Madin-Darby canine kidney cell line (MDCK) were obtained from the Chinese Academy of Medical Sciences and Peking Union Medical College. Cultures were maintained as monolayer in RPMI-1640/DMEM supplemented with 10% (v/v) fetal bovine serum (FBS) and 1% (v/v) penicillin/streptomycin (Thermo Technologies, New York, NY, United States) under a humidified atmosphere containing 5% CO2 at 37°C. The BoA derivatives and positive control drugs (BoA and DDP) under study were dissolved in DMSO (Sigma, St. Louis, MO, United States) and added at required concentrations to the cell culture. Cells incubated without the preparations served as the control.
(§2) The antitumor activity was assessed by MTT assay, as previously reported ([Fang et al., 2018]). Each tested compound and positive control drugs were dissolved in DMSO and diluted with the medium to the test concentrations, and the final concentration of DMSO in the culture medium was controlled at less than 0.5% (v/v). Briefly, cells were cultured at 37°C and dispersed in replicates in 96-well plates with HepG2, Bel-7402, HeLa, MCF-7 and MDCK for 24 h. Fresh medium along with compounds (BoAA-BoAE, BoA2A-BoA2G, BoA3A-BoA3G, BoA4A-BoA4G) at different concentrations was then added to individual wells and incubated for 72 h, with BoA and DDP as the positive control. Experiments on FXR expression were separated into three groups: Control (PBS), BoA2C (8 μM), and BoA2C (8 μM) + DY268 (10 μM) ([Giordano et al., 2016]), with three repeating wells in each. In separate wells, BoA2C and DY268 were introduced and cultured for 72 h. After 72 h, the cell was incubated with MTT solution (0.5 mg/ml) for an additional 4 h at 37°C. The produced formazan crystals were solubilized with DMSO, and the optical density of solution was measured at 570 nm using a plate reader (BIORAD 550 spectrophotometer, Bio-rad Life Science Development Ltd., Beijing, China). Wells without drugs were used to be blanks. The IC50 values were defined as the concentration of compounds that produced a 50% proliferation inhibition of surviving cells and calculated using the Graph Pad Prism 5. The inhibitory rate was calculated in the following Equation 1, where OD is the optical density: % inhibition=[1−(OD Sample group−OD Blank group)/(OD Control group−OD Blank group)]×100% (1)

[2] = system: Bel-7402; experiment: MTT assay, Bel-7402 cells; format: cell-based, human; settings: read-out: Half maximal inhibitory concentration (IC50) values, Bel-7402
Source text: as §1, §2

[3] = system: Hela; experiment: MTT assay, Hela cells; format: cell-based, human; settings: 72 h incubation, read-out: Half maximal inhibitory concentration (IC50) values, Hela
Source text: as §1, §2

[4] = system: MCF-7; experiment: MTT assay, MCF-7 cells; format: cell-based, human; settings: read-out: Half maximal inhibitory concentration (IC50) values, MCF-7
Source text: as §1, §2

[5] = system: MDCK; experiment: MTT assay, MDCK normal cell line; format: cell-based, canine; settings: 72 h incubation, normal cell line, read-out: Half maximal inhibitory concentration (IC50) values, MDCK
Source text: as §1, §2

[6] = Homo sapiens, HepG2, 72 h incubation
[7] = Homo sapiens, Bel-7402, 72 h incubation
[8] = Homo sapiens, MCF7, 72 h incubation

Compound	IC50 [1, 6] [µM]	IC50 [2, 7] [µM]	IC50 ([3]; Homo sapiens, HeLa) [µM]	IC50 [4, 8] [µM]	IC50 ([5]; Canis lupus familiaris, MDCK) [µM]	melting point [°C]	IC50 ([1]; 72 h incubation) [µM]	IC50 ([2]; 72 h incubation) [µM]	IC50 [3] [µM]	IC50 ([4]; 72 h incubation) [µM]	IC50 [5] [µM]
C=C(C)[C@@H]1CC[C@]2(C(=O)OCCCOC(=O)c3nc(C)c(C)nc3C)CC[C@]3(C)[C@H](CC[C@@H]4[C@@]5(C)CCC(=O)C(C)(C)[C@@H]5CC[C@]43C)[C@@H]12 [BoA3E, (3,5,6-Trimethylpyrazin-2-acyloxy)-propyl-3-oxolup-20(29)-en-28-oate]	20.2 ± 0.53	11.2 ± 1.55	10.1 ± 0.15	29.5 ± 0.89	> 30	57 to 59					
C=C(C)[C@@H]1CC[C@]2(C(=O)OCCOC(=O)c3ccncn3)CC[C@]3(C)[C@H](CC[C@@H]4[C@@]5(C)CCC(=O)C(C)(C)[C@@H]5CC[C@]43C)[C@@H]12 [BoA2F]	> 30	> 30	15.2 ± 1.07	29.7 ± 0.37	12.5 ± 1.22	72 to 74					
C=C(C)[C@@H]1CC[C@]2(C(=O)OCc3cncc(C)n3)CC[C@]3(C)[C@H](CC[C@@H]4[C@@]5(C)CCC(=O)C(C)(C)[C@@H]5CC[C@]43C)[C@@H]12 [BoAD, (6-Methylpyrazin-2-yl)-methyl-3-oxolup-20(29)-en-28-oate]	5.17 ± 1.33	7.51 ± 1.4	10.7 ± 0.32	8.24 ± 0.87	> 30	119 to 121					
C=C(C)[C@@H]1CC[C@]2(C(=O)OCCCOC(=O)c3ccncn3)CC[C@]3(C)[C@H](CC[C@@H]4[C@@]5(C)CCC(=O)C(C)(C)[C@@H]5CC[C@]43C)[C@@H]12 [BoA3F]	> 30	22.3 ± 5.85	21.1 ± 6.66	> 30	17.9 ± 0.82	50 to 52					
C=C(C)[C@@H]1CC[C@]2(C(=O)OCCCCOC(=O)c3cnccn3)CC[C@]3(C)[C@H](CC[C@@H]4[C@@]5(C)CCC(=O)C(C)(C)[C@@H]5CC[C@]43C)[C@@H]12 [BoA4A, (Pyrazin-2-acyloxy)-butyl-3-oxolup-20(29)-en-28-oate]	12.9 ± 4	9.39 ± 0.73	13.82 ± 0.12	9.13 ± 0.4	25.3 ± 4.14	69 to 71					
C=C(C)[C@@H]1CC[C@]2(C(=O)OCc3cnccn3)CC[C@]3(C)[C@H](CC[C@@H]4[C@@]5(C)CCC(=O)C(C)(C)[C@@H]5CC[C@]43C)[C@@H]12 [BoAA, Pyrazin-2-ylmethyl-3-oxolup-20(29)-en-28-oate]	13.5 ± 1.8	8.16 ± 2.08	18.3 ± 1.63	15.7 ± 0.55	> 30						
N.N.[Cl][Pt][Cl] [DDP, cisplatin, reference compound]							5.23 ± 1.03	8.86 ± 1.32	9.84 ± 2.54	6.98 ± 0.32	13.7 ± 1.45
C=C(C)[C@@H]1CC[C@]2(C(=O)OCCCCOC(=O)c3nccnc3C)CC[C@]3(C)[C@H](CC[C@@H]4[C@@]5(C)CCC(=O)C(C)(C)[C@@H]5CC[C@]43C)[C@@H]12 [BoA4B, (3-Methylpyrazin-2-acyloxy)-butyl-3-oxolup-20(29)-en-28-oate]	21.8 ± 2.46	3.92 ± 1.1	11.5 ± 0.93	> 30	> 30	54 to 55					
C=C(C)[C@@H]1CC[C@]2(C(=O)OCCCCOC(=O)c3cncc(C)n3)CC[C@]3(C)[C@H](CC[C@@H]4[C@@]5(C)CCC(=O)C(C)(C)[C@@H]5CC[C@]43C)[C@@H]12 [BoA4D, (6-Methylpyrazin-2-acyloxy)-butyl-3-oxolup-20(29)-en-28-oate]	> 30	16.3 ± 0.9	15.7 ± 2.15	> 30	> 30						
C=C(C)[C@@H]1CC[C@]2(C(=O)OCCCCOC(=O)c3nc(C)c(C)nc3C)CC[C@]3(C)[C@H](CC[C@@H]4[C@@]5(C)CCC(=O)C(C)(C)[C@@H]5CC[C@]43C)[C@@H]12 [BoA4E, (3,5,6-Trimethylpyrazin-2-acyloxy)-butyl-3-oxolup-20(29)-en-28-oate]	> 30	> 30	> 30	> 30	> 30	124 to 126					
C=C(C)[C@@H]1CC[C@]2(C(=O)OCCOC(=O)c3nccnc3C)CC[C@]3(C)[C@H](CC[C@@H]4[C@@]5(C)CCC(=O)C(C)(C)[C@@H]5CC[C@]43C)[C@@H]12 [BoA2B, (3-Methylpyrazin-2-acyloxy)-ethyl-3-oxolup-20(29)-en-28-oate]	13.4 ± 1.82	10.1 ± 1.4	15.5 ± 0.81	> 30	> 30	60 to 62					
C=C(C)[C@@H]1CC[C@]2(C(=O)O)CC[C@]3(C)[C@H](CC[C@@H]4[C@@]5(C)CCC(=O)C(C)(C)[C@@H]5CC[C@]43C)[C@@H]12 [BoA, betulonic acid]	> 30	> 30	27 ± 1.06	> 30	> 30						
C=C(C)[C@@H]1CC[C@]2(C(=O)OCc3cnc(C)cn3)CC[C@]3(C)[C@H](CC[C@@H]4[C@@]5(C)CCC(=O)C(C)(C)[C@@H]5CC[C@]43C)[C@@H]12 [BoAC, (5-Methylpyrazin-2-yl)-methyl-3-oxolup-20(29)-en-28-oate]	8.95 ± 4.76	8.24 ± 2.43	11.9 ± 1.05	8.94 ± 1.3	> 30	125 to 127					
C=C(C)[C@@H]1CC[C@]2(C(=O)OCCCCOC(=O)c3ccncn3)CC[C@]3(C)[C@H](CC[C@@H]4[C@@]5(C)CCC(=O)C(C)(C)[C@@H]5CC[C@]43C)[C@@H]12 [BoA4F]	30.2 ± 1.51	> 30	25.9 ± 0.57	24.5 ± 5.17	27.22 ± 0.25						
C=C(C)[C@@H]1CC[C@]2(C(=O)OCCCOC(=O)c3ccnnc3)CC[C@]3(C)[C@H](CC[C@@H]4[C@@]5(C)CCC(=O)C(C)(C)[C@@H]5CC[C@]43C)[C@@H]12 [BoA3G]	> 30	25.2 ± 2.44	4 ± 0.32	13.4 ± 0.51	18.5 ± 0.42	68 to 71					
C=C(C)[C@@H]1CC[C@]2(C(=O)OCCOC(=O)c3cncc(C)n3)CC[C@]3(C)[C@H](CC[C@@H]4[C@@]5(C)CCC(=O)C(C)(C)[C@@H]5CC[C@]43C)[C@@H]12 [BoA2D, (6-Methylpyrazin-2-acyloxy)-ethyl-3-oxolup-20(29)-en-28-oate]	7.32 ± 2.88	8.22 ± 0.43	14.9 ± 1.84	8.32 ± 1.28	> 30	139 to 141					
C=C(C)[C@@H]1CC[C@]2(C(=O)OCCOC(=O)c3ccnnc3)CC[C@]3(C)[C@H](CC[C@@H]4[C@@]5(C)CCC(=O)C(C)(C)[C@@H]5CC[C@]43C)[C@@H]12 [BoA2G]	> 30	24.8 ± 2.43	5.81 ± 0.24	> 30	13 ± 0.46	130 to 132					
C=C(C)[C@@H]1CC[C@]2(C(=O)OCCCCOC(=O)c3ccnnc3)CC[C@]3(C)[C@H](CC[C@@H]4[C@@]5(C)CCC(=O)C(C)(C)[C@@H]5CC[C@]43C)[C@@H]12 [BoA4G, (Pyridazin-2-acyloxy)-butyl-3-oxolup-20(29)-en-28-oate]	29.27 ± 0.22	19.4 ± 1.2	7.46 ± 1.99	12.8 ± 0.15	16.9 ± 1.03						
C=C(C)[C@@H]1CC[C@]2(C(=O)OCCCCOC(=O)c3cnc(C)cn3)CC[C@]3(C)[C@H](CC[C@@H]4[C@@]5(C)CCC(=O)C(C)(C)[C@@H]5CC[C@]43C)[C@@H]12 [BoA4C, (5-Methylpyrazin-2-acyloxy)-butyl-3-oxolup-20(29)-en-28-oate]	22.2 ± 1.76	5.53 ± 0.46	17.9 ± 0.45	9.88 ± 1.49	> 30						

Source: paper PMC9486541, “Design, synthesis and cytotoxic evaluation of novel betulonic acid-diazine derivatives as potential antitumor agents” (Frontiers in Chemistry, 2022)
